Each structure is given as a SMILES string. The source made the active and inactive calls. The rule behind the calls is not given here.

For the series, the system named is CCRIS mutagenicity, Ames/micronucleus/aberration tests. The series is described as follows: CCRIS mutagenicity studies.
Where [1] appears, read: Test System: AMES SALMONELLA TYPHIMURIUM, Strain/Indicator: TA98, Metabolic Activation: HAMSTER, LIVER, S-9, AROCLOR 1254, Method: STANDARD PLATE.
The mark [2] stands for this setting: Test System: AMES SALMONELLA TYPHIMURIUM, Strain/Indicator: TA98, Metabolic Activation: NONE, Method: STANDARD PLATE.
Setting [3] is: Test System: AMES SALMONELLA TYPHIMURIUM, Strain/Indicator: TA98, Metabolic Activation: RAT, LIVER, S-9, AROCLOR 1254, Method: STANDARD PLATE.
[4] abbreviates: Test System: AMES SALMONELLA TYPHIMURIUM, Strain/Indicator: TA100, Metabolic Activation: HAMSTER, LIVER, S-9, AROCLOR 1254, Method: STANDARD PLATE.
The mark [5] stands for this setting: Test System: AMES SALMONELLA TYPHIMURIUM, Strain/Indicator: TA100, Metabolic Activation: NONE, Method: STANDARD PLATE.
The mark [6] stands for this setting: Test System: AMES SALMONELLA TYPHIMURIUM, Strain/Indicator: TA100, Metabolic Activation: RAT, LIVER, S-9, AROCLOR 1254, Method: STANDARD PLATE.
Where [7] appears, read: Test System: AMES SALMONELLA TYPHIMURIUM, Strain/Indicator: TA1535, Metabolic Activation: NONE, Method: STANDARD PLATE.

On to `O=c1[nH]cnc2c1ncn2[C@H]1CC[C@@H](CO)O1`, for which the mutagenic call was “inactive; negative” under setting [1]; “inactive; negative” under setting [2]; “inactive; negative” under setting [3]; “inactive; negative” under setting [4]; “inactive; negative” under setting [5]; “inactive; negative” under setting [6]. Further, the mutagenic call runs as follows: (Test System: AMES SALMONELLA TYPHIMURIUM, Strain/Indicator: TA1535, Metabolic Activation: HAMSTER, LIVER, S-9, AROCLOR 1254, Method: STANDARD PLATE) “inactive; negative”; under setting [7], “inactive; negative”; (Test System: AMES SALMONELLA TYPHIMURIUM, Strain/Indicator: TA1535, Metabolic Activation: RAT, LIVER, S-9, AROCLOR 1254, Method: STANDARD PLATE) “inactive; negative”; (Test System: AMES SALMONELLA TYPHIMURIUM, Strain/Indicator: TA1537, Metabolic Activation: HAMSTER, LIVER, S-9, AROCLOR 1254, Method: STANDARD PLATE) “inactive; negative”; (Test System: AMES SALMONELLA TYPHIMURIUM, Strain/Indicator: TA1537, Metabolic Activation: NONE, Method: STANDARD PLATE) “inactive; negative”; (Test System: AMES SALMONELLA TYPHIMURIUM, Strain/Indicator: TA1537, Metabolic Activation: RAT, LIVER, S-9, AROCLOR 1254, Method: STANDARD PLATE) “inactive; negative”. Moreover, the mutagenic call reads like this: (Test System: AMES SALMONELLA TYPHIMURIUM, Strain/Indicator: TA1538, Metabolic Activation: HAMSTER, LIVER, S-9, AROCLOR 1254, Method: STANDARD PLATE) “inactive; negative”; (Test System: AMES SALMONELLA TYPHIMURIUM, Strain/Indicator: TA1538, Metabolic Activation: NONE, Method: STANDARD PLATE) “inactive; negative”; (Test System: AMES SALMONELLA TYPHIMURIUM, Strain/Indicator: TA1538, Metabolic Activation: RAT, LIVER, S-9, AROCLOR 1254, Method: STANDARD PLATE) “inactive; negative”; (Test System: HUMAN B LYMPHOBLASTOID CELLS, Strain/Indicator: TK6 CELL (HPRT)/6-THIOGUANINE, Metabolic Activation: NONE, Method: SUSPENSION/PLATE) “active; positive”; (Test System: HUMAN B LYMPHOBLASTOID CELLS, Strain/Indicator: TK6 CELL (TK+/-)/TRIFLUOROTHYMIDINE, Metabolic Activation: NONE, Method: SUSPENSION/PLATE) “active; positive”.
Take `C[n+]1c2ccccc2cc2ccccc21`: the mutagenic call (Test System: AMES SALMONELLA TYPHIMURIUM, Strain/Indicator: TA1535, Metabolic Activation: NONE, Method: PREINCUBATION) was “inactive; negative”; the mutagenic call (Test System: AMES SALMONELLA TYPHIMURIUM, Strain/Indicator: TA1535, Metabolic Activation: RAT, LIVER, S-9, TETRACHLOROBIPHENYL, Method: PREINCUBATION) is “inactive; negative”; the mutagenic call (Test System: AMES SALMONELLA TYPHIMURIUM, Strain/Indicator: TA1537, Metabolic Activation: NONE, Method: PREINCUBATION) was “inactive; negative”; the mutagenic call (Test System: AMES SALMONELLA TYPHIMURIUM, Strain/Indicator: TA1537, Metabolic Activation: RAT, LIVER, S-9, TETRACHLOROBIPHENYL, Method: PREINCUBATION) was “active; positive”; the mutagenic call (Test System: AMES SALMONELLA TYPHIMURIUM, Strain/Indicator: TA1538, Metabolic Activation: NONE, Method: PREINCUBATION) is “inactive; negative”; the mutagenic call (Test System: AMES SALMONELLA TYPHIMURIUM, Strain/Indicator: TA1538, Metabolic Activation: RAT, LIVER, S-9, TETRACHLOROBIPHENYL, Method: PREINCUBATION) was “active; positive”. Moreover, the mutagenic call (Test System: AMES SALMONELLA TYPHIMURIUM, Strain/Indicator: TA1978, Metabolic Activation: RAT, LIVER, S-9, TETRACHLOROBIPHENYL, Method: PREINCUBATION) is “inactive; negative”.
As for `NC1CCN(c2nc3c(cc2F)c(=O)c(C(=O)O)cn3-c2ccc(F)cc2F)C1` (configuration not stated), the mutagenic call (Test System: AMES SALMONELLA TYPHIMURIUM, Strain/Indicator: TA102, Metabolic Activation: NONE, Method: STANDARD PLATE) is “active; positive”.
For `CN(C)CCOc1ccc(/C(=C(/CCCl)c2ccccc2)c2ccccc2)cc1`, for the setting “End Point: IN VITRO CHROMOSOMAL ABERRATIONS, Test System: SYRIAN HAMSTER EMBRYO (SHE) CELLS, Metabolic Activation: NONE”, the mutagenic call was “active; positive (ploidy changes)”.
As for `C1=C2c3ccccc3CCC2CCC1` (configuration not stated), the mutagenic call reads like this: (Test System: AMES SALMONELLA TYPHIMURIUM, Strain/Indicator: TA98, Metabolic Activation: RAT, LIVER, S-9, SODIUM PHENOBARBITAL AND BETA-NAPHTHOFLAVONE, Method: STANDARD PLATE) “active; positive”; (Test System: AMES SALMONELLA TYPHIMURIUM, Strain/Indicator: TA100, Metabolic Activation: RAT, LIVER, S-9, SODIUM PHEOBARBITAL AND BETA-NAPHTHOFLAVONE, Method: STANDARD PLATE) “active; positive”.
Regarding `CN(C)c1ccc(N=Nc2cccc3ccccc23)cc1`, the mutagenic call runs as follows: under setting [1], “active; positive”; (Test System: AMES SALMONELLA TYPHIMURIUM, Strain/Indicator: TA98, Metabolic Activation: HAMSTER, LIVER, S-9, Method: PREINCUBATION (PRIVAL METHOD)) “active; positive”; (Test System: AMES SALMONELLA TYPHIMURIUM, Strain/Indicator: TA98, Metabolic Activation: RAT, LIVER, S-9, AROCLOR 1254, HAMSTER, LIVER, S-9, AROCLOR 1254, Method: STANDARD PLATE) “active; positive”; under setting [4], “active; positive”; (Test System: AMES SALMONELLA TYPHIMURIUM, Strain/Indicator: TA100, Metabolic Activation: HAMSTER, LIVER, S-9, Method: PREINCUBATION (PRIVAL METHOD)) “active; positive”; (Test System: AMES SALMONELLA TYPHIMURIUM, Strain/Indicator: TA1535, Metabolic Activation: RAT, LIVER, S-9, AROCLOR 1254, HAMSTER, LIVER, S-9, AROCLOR 1254, Method: STANDARD PLATE) “active; positive”. Besides, the mutagenic call runs as follows: (Test System: AMES SALMONELLA TYPHIMURIUM, Strain/Indicator: TA1538, Metabolic Activation: RAT, LIVER, S-9, AROCLOR 1254, HAMSTER, LIVER, S-9, AROCLOR 1254, Method: STANDARD PLATE) “active; positive”; (Test System: MOUSE LYMPHOMA, Strain/Indicator: L5178Y (TK+/TK-), Metabolic Activation: RAT, LIVER, S-9, AROCLOR 1254, Method: SUSPENSION/PLATE) “active; positive. reevaluation of results: positive”; (Test System: Mouse lymphoma, Strain/Indicator: L5178Y (tk+/tk-), Metabolic Activation: None, Method: Suspension/plate) “active; positive”.
As to `C=CCCCCC1CO1` (configuration not stated), the mutagenic call is “inactive; negative” under setting [5] and “active; positive” under setting [7].
As to `NC(=O)c1ccc(N)nc1`, the mutagenic call (Test System: CHINESE HAMSTER OVARY, Strain/Indicator: CHO/6-THIOGUANINE, Metabolic Activation: NONE) was “inactive; negative”; the mutagenic call (Test System: CHINESE HAMSTER OVARY, Strain/Indicator: CHO/6-THIOGUANINE, Metabolic Activation: RAT, LIVER, S-9) is “inactive; negative”; the mutagenic call (Test System: CHINESE HAMSTER OVARY, Strain/Indicator: CHO/OUABAIN, Metabolic Activation: NONE) was “inactive; negative”; the mutagenic call (Test System: CHINESE HAMSTER OVARY, Strain/Indicator: CHO/OUABAIN, Metabolic Activation: RAT, LIVER, S-9) was “inactive; negative”.
Consider `Cc1c2ccccc2c(C)c2ccccc12`, for which the mutagenic call reads like this: under setting [2], “active; positive”; under setting [3], “active; positive”; under setting [5], “inactive; negative”; under setting [6], “active; positive”.

The values are drawn from PubChem BioAssay AID1259407 (Chemical Carcinogenesis Research Information System (CCRIS), 2018).
